The nature of data set [1]: Therapeutic use of NO-derivatized L-NAME variant. The following applies: nitrite ester variant. The class given is in vivo. From the text: The invention is explained and illustrated by the following background examples and working examples. In the examples the NO-derivatized LNAME is the compound of formula (I) where R^3 is CH3 and R^1 is --(CH2)2 --ONO2. This compound is made by starting with N^ω -nitro-α-(2-hydroxyethyl)-L-arginine made as described above, forming the tert-butyloxycarbonyl derivative, dissolving in methanol, adding […], using non-aqueous trifluoroacetic acid to remove the protecting group and converting to the nitrate ester.

Another data set relates to solid tumor. The data set can be described thus: Working Example VII: solid tumor patient. The class given is in vivo, human. Particulars: treatment for seven days. The procedure:
A person is given the anti-tumor agent 5,6 dimethylxanthemone-4-acetic acid (5,6 MEXAA) to treat a solid tumor identified by biopsy on the left lower extremity, and lung. […] At this time, the patient is treated with intravenous infusion of paraquat (4 milligram per kilogram) for seven cycles.

The subject of data set [2] is Rabbit aortic rings. The data set can be described thus: Acetylcholine-induced (EDRF) relaxation of aortic rings. The following applies: Oryctolagus cuniculus; L-NAME (2 mM), acetylcholine, phenylephrine 1 μM; FIG. 3(a); read-out: inhibition of the relaxation response. The procedure: Rabbit aortic rings were treated with increasing concentrations of paraquat or L-NAME (2 mM) prior to initiating a constriction response with 1 μM phenylephrine (initial contraction).
(§1) New Zealand white male rabbits weighting 3-4 kg were anaesthetized with phenobarbital (30 mg/kg/iv). The descending thoracic aorta was isolated and placed in Krebs-Henseleit buffer (pH 7.4) and stored at 4° C. until used. The vessels were cut into 5 mm rings and submerged in 25 ml double jacketed tissue baths containing Krebs-Henseleit buffer bubbled with 95% oxygen and 5% carbon dioxide at 37° C. Rings were hung on stainless steel stirrups connected to calibrated force transducers. Rings were equilibrated with 2 g resting tension for 1 hour before use and contracted with phenylephrine (1 μM). Rings were incubated with paraquat for 15 minutes before acetylcholine-induced or exogenous relaxations were performed.
Endothelial-derived relaxing factor (EDRF) responses were initiated by addition of acetylcholine.

Data set [3] deals with T1, Recombinant rat neuronal nitric oxide synthase (NOS1) (Rattus norvegicus, UniProt P29476).
T1 construct: purchased Oxis, Portland, Oreg
As to the kind of experiment: NADPH oxidation (paraquat diaphorase activity) by recombinant rat neuronal nitric oxide synthase. The following applies: NOS inhibitor 1 mM, FIG. 2(a); for effect on paraquat-stimulated NADPH oxidation: 25 μM paraquat; for effect on basal NADPH oxidation: no paraquat. The class given is biochemical. The procedure: Recombinant rat neuronal nitric oxide synthase (NOS1, Oxis, Portland, Oreg.), a constitutive enzyme, was used to assay NADPH oxidation in the presence of increasing concentrations of paraquat. Reactions (0.2 ml) were performed in bis-tris propane buffer (40 mM) containing L-arginine (1 mM), CaCl2 (1.2 mM), EDTA (0.9 mM), NADPH (0.35 mM), dithiothreitol (3 mM), tetrahydrobiopterin (4 μM), catalase (1 μg/ml) and calmodulin (200 U/ml) at pH 7.4. Reactions were initiated by the addition of 1.5 U of NOS1, and the oxidation of NADPH was continuously monitored at 340 nm for 1 minute at 37° C. in a plate reader. The rate of NOS-mediated NADPH oxidation was determined using an extinction coefficient of 6.22 mM^-1 cm^-1 after subtracting the baseline of NADPH oxidation.
The experiment of Background Example 1 for NADPH oxidation was carried out in the presence and absence of 25 μM paraquat, without any NOS inhibitor (control), in the presence of L-NAME (1 mM) or in the presence of 1 mM L-NMMA. […] Only L-NAME shut down the NADPH oxidase activity.

Data set [4] is described as follows: Working Example III: stroke patient. The class given is in vivo, human. From the text: A person presents with confusion and weakness in the left arm. […] The L-NAME is stopped and the patient is given an NO derivatized L-NAME compound at 0.1 milligram per kilogram per minute IV which lowers the blood pressure to 170/100.
Data set [5] can be described thus: Working Example I: patient exposed to paraquat. The class given is in vivo, human. The following applies: L-NAME IV 0.1 mg per kilogram per minute. The procedure: A person presents complaining of shortness of breath after working with paraquat. […] An intravenous line is inserted and the patient is started on IV infusion of 0.1 mg per kilogram per minute L-NAME. […] Over the following two days they are weaned off L-NAME.

For data set [6], the system named is CPA-47 endothelial cell line. As to the kind of experiment: LDH release from endothelial cells (cytotoxicity). The class given is cell-based. The following applies: increasing inhibitor concentrations with 2 mM paraquat, 24 hours; FIG. 2(b). The procedure: To test whether the above effect was present in intact cells, endothelial cell cultures, constitutively expressing NOS3 protein as determined by western blot analysis, were treated with 2 mM paraquat in the presence of increasing concentrations of either L-NAME or L-NMMA.
The endothelial cells were obtained as follows: CPA-47 endothelial cell line (CRL-1733) was purchased from American Type Culture Collection (Manassas, Va.). Endothelial cells were grown in T-75 flasks containing Ham's F-12 K medium supplemented by 1 mM […] and 10% equine serum (Gibco-BRL, Grand Island, N.Y.). Endothelial cells were plated at 3.5×10^4 cells/well in 24-well plates and experiments were performed 48 hours later when cells were near confluence. Medium was changed to minimal essential medium without serum supplement. Endothelial cells were from passages 30-36.
Cytotoxicity was measured as the percent release of LDH and compared to vehicl-treated cells (basal). The percent release of cytosolic lactate dehydrogenase (LDH) into the culture medium was used to assess the integrity of the cell membrane. LDH activity was measured by following the loss of NADH at 340 nm as described in Day, B. J., et al., J. Pharmacol. Exp. Ther. 275, 1227-1232 (1995). The percent release of LDH into the culture medium 24 hours after the paraquat treatment was used to assess cell injury.

Data set [7] in a line: Working Example IX: breast cancer patient with adriamycin toxicity. Format: in vivo, human. An excerpt: A person with metastatic breast cancer receives adriamycin in the standard regimen. […] They are begun on the nitric oxide synthase inhibitor L-NAME 0.5 milligrams per kilogram per minute and their systolic blood pressure is then titrated to 100-120 mm Hg. Over the following two weeks, their ejection fraction improves to 50% and the drug is stopped.

Data set [8] in a line: Working Example X: embolic stroke patient. The class given is in vivo, human. The following applies: 10 mg IV bolus followed by 4.5 mg per kilogram per minute; L-NMMA 30 minutes, L-NAME following day. The procedure: A person with middle cerebral arterial embolic stroke presents to the Emergency Room unconscious. […] After 30 minutes the therapy is stopped and they receive L-NAME at the same dose.

The nature of data set [9]: Working Example IV: patient with E. Coli bacteremia. The class given is in vivo, human. The procedure:
A person with E. Coli bacteremia presents with a fever of 101° F. and a blood pressure of 70/50. […] The drug is stopped and they are begun on NO-derivatized L-NAME at 0.1 mg/kg/minute. […] Blood pressure rises to 100/80.

Data set [10] in a line: Working Example XIV: congestive heart failure and COPD patient. Format: in vivo, human. The following applies: 10 milligram per kilogram IV bolus and IV drip 0.5 milligrams per kilograms per minute. From the text: A patient with congestive heart failure and COPD presents acutely short of breath. They are intubated for respiratory failure. […] Their FEV1 is 0.8. The patient has a protracted hospital course and attempts to wean them from the ventilator are unsuccessful. They are then started on 10 milligram per kilogram IV bolus of L-NMMA and an intravenous drip at 0.5 milligrams per kilograms per minute.

A further data set has as its system breast cancer. As to the kind of experiment: Working Examples XI and XII: breast cancer patient. Format: in vivo, human. The procedure:
A person presents with breast cancer and is treated with standard regimen including adriamycin. […] They are given an infusion of a temperature-sensitive liposome encapsulated nitric oxide synthase, which is released in to the tumor by local heat (40-42° centigrate).
The adriamycin infusion in Example X after liposome encapsulated nitric oxide synthase treatment is replaced by 2 mg per day of diquat for six days.

In data set [11] the test system is Rabbit aortic rings. As to the kind of experiment: Exogenous NO-induced relaxation of aortic rings. The following applies: 2 mM paraquat, phenylephrine 1 μM; FIG. 3(b). The procedure:
as §1
In another case, rabbit aortic rings were constricted with 1 μM phenylephrine (initial contraction) and relaxed with increasing concentration of NO in the presence or absence of 2 mM paraquat. The results are shown in FIG. 3(b) where relaxations are expressed as a percent of the initial phenylephrine-induced contraction.

Data set [12] concerns RAW-264.7 monocyte macrophage cells. As to the kind of experiment: LDH release from macrophages (cytotoxicity). Format: cell-based. Particulars: conclusion of Background Example 4. The procedure: The RAW-264.7 monocyte macrophage cells line (TIB-71) was purchased from the American Type Culture Collection (Manassas, Va.). The cells were grown in T-75 flasks containing DMEM (Gibco-BRL, Grand Island, N.Y.) supplemented with 1 mM pyruvate, 4.5 g/L glucose and […] fetal bovine serum Macrophages were plated at 2.0×10^4 cells/well in 24-well plates and experiments were performed when cells were near confluence. Macrophages were immunostimulated with 50 ng/ml lipopolysaccharide (LPS) from E. coli serotype 0111:B4 (Signia, St. Louis, Mo.) and 50 U/ml recombinant mouse interferon gamma (INF-γ, R&D Systems, Minneapolis,Minn.). Macrophages were used between passages 2-8. Cell cultures were kept in a 37° C. incubator with air and 5% carbon dioxide.
NOS2 was induced in RAW cells using a mixture of interferon-γ and lipopolysaccharide (LPS) referred to as "cytomix." Unstimulated (basal) and activated (cytomix) macrophages were treated with 0.1 mM paraquat or not treated with paraquat and cytotoxicity and NO production were assessed at 24 hours.
Cell injury was assessed by measuring LDH release.
To further exclude the role of peroxynitrite, macrophages were treated with increasing concentrations of the NO-donor, DETA NONOate in the presence of 0.1 mM paraquat. Macrophage cytotoxicity and NO release were assessed 24 hours after treatments. Cell injury was assessed by measuring LDH release.

[13] abbreviates: 0.1 milligram per kilogram per minute IV.
[14] abbreviates: 0.1 mg/kg/minute, after L-NMMA stopped.

Bounds are passed on as bounds.

Here are results for eight molecules from patent US6231894A, “Treatments based on discovery that nitric oxide synthase is a paraquat diaphorase” (Duke University, priority 1999, dated 2001).

T1 sequence (P29476 whole entry): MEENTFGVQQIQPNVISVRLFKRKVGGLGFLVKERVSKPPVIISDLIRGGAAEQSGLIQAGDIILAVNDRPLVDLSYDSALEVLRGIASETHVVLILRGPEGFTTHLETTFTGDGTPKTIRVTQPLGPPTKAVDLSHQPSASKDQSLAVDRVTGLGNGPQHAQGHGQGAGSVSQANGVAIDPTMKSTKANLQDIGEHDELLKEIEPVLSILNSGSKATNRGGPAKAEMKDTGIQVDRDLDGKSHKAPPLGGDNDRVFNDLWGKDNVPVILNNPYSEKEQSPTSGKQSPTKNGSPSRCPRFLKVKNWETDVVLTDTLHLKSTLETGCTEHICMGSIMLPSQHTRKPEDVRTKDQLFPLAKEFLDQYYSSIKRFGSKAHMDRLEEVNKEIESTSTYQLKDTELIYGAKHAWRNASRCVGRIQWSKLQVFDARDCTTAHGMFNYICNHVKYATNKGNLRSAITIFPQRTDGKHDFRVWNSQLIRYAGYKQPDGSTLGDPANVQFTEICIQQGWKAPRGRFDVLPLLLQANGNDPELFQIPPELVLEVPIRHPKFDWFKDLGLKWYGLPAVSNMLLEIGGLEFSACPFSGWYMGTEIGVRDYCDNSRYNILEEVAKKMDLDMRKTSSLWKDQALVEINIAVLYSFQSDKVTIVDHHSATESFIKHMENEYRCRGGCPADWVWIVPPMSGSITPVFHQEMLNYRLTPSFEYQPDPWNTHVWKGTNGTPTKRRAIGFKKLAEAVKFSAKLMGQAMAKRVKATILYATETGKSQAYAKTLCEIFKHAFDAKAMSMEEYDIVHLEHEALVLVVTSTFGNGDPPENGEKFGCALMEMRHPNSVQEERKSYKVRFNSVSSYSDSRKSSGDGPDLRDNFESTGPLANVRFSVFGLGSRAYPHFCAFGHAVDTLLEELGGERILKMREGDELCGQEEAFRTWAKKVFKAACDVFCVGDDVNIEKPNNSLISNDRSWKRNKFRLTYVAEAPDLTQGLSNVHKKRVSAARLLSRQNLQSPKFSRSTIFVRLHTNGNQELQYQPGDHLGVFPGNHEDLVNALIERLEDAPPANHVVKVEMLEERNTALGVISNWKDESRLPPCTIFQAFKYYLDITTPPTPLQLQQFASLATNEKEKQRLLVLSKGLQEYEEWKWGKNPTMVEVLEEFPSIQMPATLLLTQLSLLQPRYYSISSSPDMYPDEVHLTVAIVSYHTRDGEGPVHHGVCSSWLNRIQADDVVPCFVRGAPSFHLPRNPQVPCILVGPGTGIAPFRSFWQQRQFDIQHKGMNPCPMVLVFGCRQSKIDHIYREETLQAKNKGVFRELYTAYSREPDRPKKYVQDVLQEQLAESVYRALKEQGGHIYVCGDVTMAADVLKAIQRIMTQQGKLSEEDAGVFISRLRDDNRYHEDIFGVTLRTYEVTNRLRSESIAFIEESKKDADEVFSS

As to `COC(=O)[C@@](N)(CCCNC(=N)N[N+](=O)[O-])CCON=O`, the therapeutic results in data set [1] is “Therapeutic results are also obtained”.

In the case of `Cc1ccc2c(=O)c3cccc(CC(=O)O)c3oc2c1C` [5,6 MEXAA, 5,6 dimethylxanthemone-4-acetic acid], the “nitric oxide synthase expression in the tumor on biopsy” value in the data set with solid tumor is given as “increase in nitric oxide synthase expression in the tumor”.

For `COC(=O)[C@@H](N)CCCNC(=N)N[N+](=O)[O-]` [L-NAME, L-nitroarginine, methyl ester], the inhibition at 2000 µM with Rabbit aortic rings [2] is more than 90%. Besides, in [3], the “effect on paraquat-stimulated NADPH oxidation” value is “completely inhibited paraquat-stimulated NADPH oxidation” and the “effect on basal NADPH oxidation” value is on record as “little effect on basal NADPH oxidation”. Moreover, the symptoms of stroke entry in data set [4] (setting [13]) is listed as “symptoms do not improve”. Also, in data set [4] (L-NAME 0.1 milligram per kilogram per minute IV), the “blood pressure during L-NAME” value was 220/110. For the same molecule, the symptoms result in data set [5] (over the day) was “symptoms improve over the day”. Moreover, in data set [5] (increases from 60, over the day), the “arteriolar PO2” value turned out to be 85 mm Hg. In addition, the “protection from paraquat toxicity (LDH release)” value in data set [6] is “dose-dependent protection from paraquat toxicity”. In data set [7] (0.5 milligrams per kilogram per minute, two weeks, from 35%), the “ejection fraction on L-NAME” value was 50%. In data set [8], the improvement / consciousness result was “regains consciousness”.

On to `CNC(=N)NCCC[C@H](N)C(=O)O` [L-NMMA, L-N-methylarginine], for which, in data set [3], the “effect on paraquat-stimulated NADPH oxidation” value was “partially blocked paraquat-induced NADPH oxidation” and the “effect on basal NADPH oxidation” value was “small increase in basal NADPH oxidation”. In addition, the “pulmonary hypertension and cardiac output” value in data set [9] (L-NMMA infusion 10 mg/kg/hr.) was “profound pulmonary hypertension and a fall in cardiac output”. Besides, the “protection from paraquat toxicity (LDH release)” value in [6] is “not L-NMMA, produced a dose-dependent protection from paraquat toxicity”. Further, in data set [10], the “weaning from the ventilator” value is reported as “weaned from the ventilator over the following day”. In addition, the improvement / consciousness result in data set [8] is on record as “without improvement”.

As for `COC(=O)[C@@](N)(CCCNC(=N)N[N+](=O)[O-])CCO[N+](=O)[O-]` [NO-derivatized L-NAME], the symptoms of stroke result in data set [4] (setting [13]) was “symptoms of confusion abate and motion returns to the arm”. In addition, the “blood pressure after switch to NO derivatized L-NAME” value in [4] (0.1 milligram per kilogram per minute IV, from 220/110) is reported as 170/100. In data set [9] (setting [14]), the cardiac output entry is recorded as “Cardiac output normalizes” and the pulmonary pressure entry was “Pulmonary pressure normalizes”. Besides, the blood pressure in data set [9] (0.1 mg/kg/minute, 70/50 at presentation) is 100/80.

Consider `COc1cccc2c1C(=O)c1c(O)c3c(c(O)c1C2=O)C[C@@](O)(C(=O)CO)C[C@@H]3O[C@H]1C[C@H](N)[C@H](O)[C@H](C)O1` [adriamycin], for which the tumor regression entry in the data set with breast cancer (adriamycin after temperature-sensitive liposome encapsulated nitric oxide synthase released by local heat, six cycles) is given as “the tumor is shown to regress after six cycles of therapy”. Moreover, the “tumor response to adriamycin alone” value in the data set on breast cancer (standard regimen including adriamycin) is on record as “The tumor fails to respond”. Also, in data set [7] (standard regimen), the “adverse effect of adriamycin” value is “light sensitivity and shortness of breath”. Further, in [7] (standard regimen, echocardiogram), the “ejection fraction after adriamycin” value stood at 35%.

For the molecule `c1cc[n+]2c(c1)-c1cccc[n+]1CC2` [diquat], in the data set with breast cancer (diquat 2 mg per day for six days after liposome encapsulated nitric oxide synthase), the tumor regression result is “The tumor is shown to regress”.

In the case of nitric oxide [NO], the “effect on exogenously added NO-induced relaxation” value with Rabbit aortic rings [11] is “NO still works in a system where NO is inhibited and superoxide is generated”. Besides, in data set [12], the “cell killing / amelioration of toxicity, conclusion” value is “toxicity can be ameliorated by putting NO back into the system”.
